Experimental data taken from article PMC11589570, “Critical assessment of LC3/GABARAP ligands used for degrader development and ligandability of LC3/GABARAP binding pockets” (Nature Communications, 2024).
Several values for one entry are separate records, joined by “and”; a condition that tells them apart may be missing. Equal entries are not always repeated. Where two headings read alike, the source gives them in different places.

Legend:
GABARAPL2 = GABARAPL2 (Homo sapiens, UniProt P60520); conditions: GABARAPL2:ligand molar ratio 1:2
Chain of GABARAPL2 (P60520 whole entry): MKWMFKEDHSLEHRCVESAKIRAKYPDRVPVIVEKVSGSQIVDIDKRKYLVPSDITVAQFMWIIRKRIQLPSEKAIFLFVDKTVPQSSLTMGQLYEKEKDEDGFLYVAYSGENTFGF

U2OS cells = assay: Cell growth assay (IncuCyte confluence over 72 h); format: cell-based; parameters: key to U2OS cell growth: % of well area covered by cells (confluence); conditions: listed as AN1
In short: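 U2OS cells were grown in DMEM with 10% FBS for 24 h before treatment. Confluence was then tracked by IncuCyte phase imaging over 72 h and expressed as % of well area covered by cells. Each point is the average of three wells.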

CSP (GABARAPL2; residue A19): 0.023 ppm
CSP (GABARAPL2; residue A23): 0.017 ppm
CSP (GABARAPL2; residue A58): 0.006 ppm
CSP (GABARAPL2; residue A75): 0.00152 ppm
CSP (GABARAPL2; residue A108): 0.001 ppm
CSP (GABARAPL2; residue C15): 0.010 ppm
CSP (GABARAPL2; residue D8): 0.011 ppm
CSP (GABARAPL2; residue D43): 0.002 ppm
CSP (GABARAPL2; residue D54): 0.011 ppm
CSP (GABARAPL2; residue D81): 0.00158 ppm
CSP (GABARAPL2; residue D100): 0.002 ppm
CSP (GABARAPL2; residue D102): 0.015 ppm
CSP (GABARAPL2; residue E7): 0.00272 ppm
CSP (GABARAPL2; residue E12): 0.006 ppm
CSP (GABARAPL2; residue E17): 0.011 ppm
CSP (GABARAPL2; residue E34): 0.012 ppm
CSP (GABARAPL2; residue E96): 0.00425 ppm
CSP (GABARAPL2; residue E98): 0.005 ppm
CSP (GABARAPL2; residue E101): 0.005 ppm
CSP (GABARAPL2; residue F5, estimated): 0.010 ppm
CSP (GABARAPL2; residue F60): 0.006 ppm
CSP (GABARAPL2; residue F77): 0.00374 ppm
CSP (GABARAPL2; residue F104): 0.019 ppm
CSP (GABARAPL2; residue F115): 0.011 ppm
CSP (GABARAPL2; residue G38): 0.024 ppm
CSP (GABARAPL2; residue G103): 0.009 ppm
CSP (GABARAPL2; residue G111): 0.00641 ppm
CSP (GABARAPL2; residue H9): 0.012 ppm
CSP (GABARAPL2; residue H13): 0.004 ppm
CSP (GABARAPL2; residue I21): 0.013 ppm
CSP (GABARAPL2; residue I32): 0.024 ppm
CSP (GABARAPL2; residue I41): 0.011 ppm
CSP (GABARAPL2; residue I44): 0.005 ppm
CSP (GABARAPL2; residue I55): 0.003 ppm
CSP (GABARAPL2; residue I63): 0.00457 ppm
CSP (GABARAPL2; residue I64): 0.007 ppm
CSP (GABARAPL2; residue I76): 0.00122 ppm
CSP (GABARAPL2; residue K2): 0.007 ppm
CSP (GABARAPL2; residue K6): 0.010 ppm
CSP (GABARAPL2; residue K20): 0.015 ppm
CSP (GABARAPL2; residue K24): 0.012 ppm
CSP (GABARAPL2; residue K35): 0.010 ppm
CSP (GABARAPL2; residue K46, estimated): 0.005 ppm
CSP (GABARAPL2; residue K48): 0.050 ppm
CSP (GABARAPL2; residue K66): 0.004 ppm
CSP (GABARAPL2; residue K82, estimated): 0.002 ppm
CSP (GABARAPL2; residue K97): 0.005 ppm
CSP (GABARAPL2; residue K99): 0.004 ppm
CSP (GABARAPL2; residue L11): 0.00364 ppm
CSP (GABARAPL2; residue L50): 0.025 ppm
CSP (GABARAPL2; residue L94): 0.011 ppm
CSP (GABARAPL2; residue L105): 0.027 ppm
CSP (GABARAPL2; residue M1): 0.00659 ppm
CSP (GABARAPL2; residue M4, estimated): 0.003 ppm
CSP (GABARAPL2; residue M61): 0.00531 ppm
CSP (GABARAPL2; residue M91): 0.003 ppm
CSP (GABARAPL2; residue P26, estimated): 0.020 ppm
CSP (GABARAPL2; residue P30, estimated): 0.040 ppm
CSP (GABARAPL2; residue P52, estimated): 0.020 ppm
CSP (GABARAPL2; residue P71, estimated): 0.002 ppm
CSP (GABARAPL2; residue P85, estimated): 0.002 ppm
CSP (GABARAPL2; residue Q40): 0.000721 ppm
CSP (GABARAPL2; residue Q59): 0.00467 ppm
CSP (GABARAPL2; residue Q86): 0.003 ppm
CSP (GABARAPL2; residue R14): 0.018 ppm
CSP (GABARAPL2; residue R22): 0.020 ppm
CSP (GABARAPL2; residue R28): 0.016 ppm
CSP (GABARAPL2; residue R47, estimated): 0.020 ppm
CSP (GABARAPL2; residue R65): 0.00158 ppm
CSP (GABARAPL2; residue R67): 0.006 ppm
CSP (GABARAPL2; residue S10): 0.010 ppm
CSP (GABARAPL2; residue S18): 0.00255 ppm
CSP (GABARAPL2; residue S37): 0.048 ppm
CSP (GABARAPL2; residue S39): 0.003 ppm
CSP (GABARAPL2; residue S53): 0.014 ppm
CSP (GABARAPL2; residue S72): 0.00173 ppm
CSP (GABARAPL2; residue S87): 0.000721 ppm
CSP (GABARAPL2; residue S88): 0.00152 ppm
CSP (GABARAPL2; residue S110): 0.00127 ppm
CSP (GABARAPL2; residue T56): 0.00374 ppm
CSP (GABARAPL2; residue T90): 0.0011 ppm
CSP (GABARAPL2; residue V16): 0.014 ppm
CSP (GABARAPL2; residue V29): 0.043 ppm
CSP (GABARAPL2; residue V31): 0.038 ppm
CSP (GABARAPL2; residue V33): 0.013 ppm
CSP (GABARAPL2; residue V42): 0.00279 ppm
CSP (GABARAPL2; residue V51): 0.046 ppm
CSP (GABARAPL2; residue V57): 0.004 ppm
CSP (GABARAPL2; residue V80): 0.008 ppm
CSP (GABARAPL2; residue V84): 0.00263 ppm
CSP (GABARAPL2; residue V107): 0.006 ppm
CSP (GABARAPL2; residue W62): 0.015 ppm
CSP (GABARAPL2; residue Y25): 0.034 ppm
CSP (GABARAPL2; residue Y49): 0.064 ppm
CSP (GABARAPL2; residue Y106): 0.023 ppm
CSP (GABARAPL2; residue Y109): 0.009 ppm
Compound: O=C1Nc2ccc(Br)cc2C1=Cc1cc(O)c(O)c(Br)c1 [compound 1]
U2OS cell growth (U2OS cells; 100 nM, time 12 h): 35.4537 and 32.3571 and 35.5968
U2OS cell growth (U2OS cells; 100 nM, time 14 h): 36.0873 and 39.0366 and 39.8543
U2OS cell growth (U2OS cells; 100 nM, time 16 h): 40.1608 and 39.3939 and 40.4478
U2OS cell growth (U2OS cells; 100 nM, time 18 h): 39.1099 and 37.1872 and 41.4362
U2OS cell growth (U2OS cells; 100 nM, time 20 h): 43.7035 and 39.6959 and 46.4166
U2OS cell growth (U2OS cells; 500 nM, time 10 h): 38.9338 and 41.9757 and 41.002
U2OS cell growth (U2OS cells; 500 nM, time 12 h): 39.0148 and 42.3639 and 41.6671
U2OS cell growth (U2OS cells; 500 nM, time 14 h): 46.8116 and 46.7871 and 49.5823
U2OS cell growth (U2OS cells; 500 nM, time 16 h): 47.3468 and 53.1118 and 48.7734
U2OS cell growth (U2OS cells; 500 nM, time 18 h): 38.8125 and 47.7715 and 46.4243
U2OS cell growth (U2OS cells; 1 uM, time 10 h): 48.4994 and 57.2399 and 59.5515
U2OS cell growth (U2OS cells; 1 uM, time 12 h): 47.4737 and 55.8868 and 54.1029
U2OS cell growth (U2OS cells; 1 uM, time 14 h): 46.9999 and 57.1898 and 59.5195
U2OS cell growth (U2OS cells; 1 uM, time 16 h): 54.858 and 68.5371 and 64.7822
U2OS cell growth (U2OS cells; 1 uM, time 18 h): 48.8637 and 59.8627 and 56.3987
U2OS cell growth (U2OS cells; 1 uM, time 20 h): 55.1556
U2OS cell growth (U2OS cells; 3 uM, time 10 h): 50.7422 and 64.1291 and 54.5819
U2OS cell growth (U2OS cells; 3 uM, time 12 h): 47.9181 and 60.7394 and 55.125
U2OS cell growth (U2OS cells; 3 uM, time 14 h): 49.0342 and 60.5893 and 56.0885
U2OS cell growth (U2OS cells; 3 uM, time 16 h): 57.6695 and 67.0321 and 61.6341
U2OS cell growth (U2OS cells; 3 uM, time 18 h): 48.0442 and 62.2285 and 59.0264
U2OS cell growth (U2OS cells; 3 uM, time 20 h): 51.1291 and 66.3122 and 66.4452
U2OS cell growth (U2OS cells; 5 uM, time 10 h): 55.0487 and 54.3842 and 51.4536
U2OS cell growth (U2OS cells; 5 uM, time 12 h): 54.96 and 58.942 and 53.816
U2OS cell growth (U2OS cells; 5 uM, time 14 h): 49.0714 and 54.2863 and 67.0438
U2OS cell growth (U2OS cells; 5 uM, time 16 h): 60.7907 and 61.6888 and 65.4648
U2OS cell growth (U2OS cells; 5 uM, time 18 h): 57.5124 and 66.5017 and 59.7417
U2OS cell growth (U2OS cells; 5 uM, time 20 h): 63.2102 and 60.2689 and 68.651
U2OS cell growth (U2OS cells; 10 uM, time 10 h): 59.7697 and 44.8684 and 48.7466
U2OS cell growth (U2OS cells; 10 uM, time 12 h): 61.5092 and 47.1657 and 52.5139
U2OS cell growth (U2OS cells; 10 uM, time 14 h): 62.1617 and 46.5884 and 50.2783
U2OS cell growth (U2OS cells; 10 uM, time 16 h): 65.2687 and 51.6571 and 54.5952
U2OS cell growth (U2OS cells; 10 uM, time 18 h): 66.9364 and 52.1914 and 55.4238
U2OS cell growth (U2OS cells; 10 uM, time 20 h): 65.8459 and 51.6884 and 56.9826
